# From paper PMC12301332, “Biased antagonism of a series of bicyclic CXCR2 intracellular allosteric modulators” (Frontiers in Pharmacology, 2025)
# T1: CXCR2 (Homo sapiens, UniProt P25025)
# T1 construct: expressed in transfected cells
# T1 sequence (P25025 1-360): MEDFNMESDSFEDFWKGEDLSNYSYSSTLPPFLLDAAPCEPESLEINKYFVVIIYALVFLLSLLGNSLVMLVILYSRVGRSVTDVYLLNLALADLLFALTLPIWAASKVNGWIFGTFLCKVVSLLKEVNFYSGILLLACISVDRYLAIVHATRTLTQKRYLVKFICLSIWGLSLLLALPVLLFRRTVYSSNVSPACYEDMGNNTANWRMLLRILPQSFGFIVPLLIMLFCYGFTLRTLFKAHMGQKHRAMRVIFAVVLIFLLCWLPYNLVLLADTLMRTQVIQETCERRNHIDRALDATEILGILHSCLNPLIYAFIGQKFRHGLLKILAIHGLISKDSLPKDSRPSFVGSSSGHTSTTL
# How the values were obtained:
# CXCR2 [1] = molecular target: T1, CXCR2; test: NanoBRET-based G protein activation inhibition assay (REGA-SIGN Gαi1 dissociation) in HEK293A.CXCR2 cells; assay type: cell-based; details: normalized to Imax of navarixin = 100%, n = 3
# Method: Cells were trypsinized and resuspended at 3 × 10^5 cell/mL in the growth medium, whereafter they were incubated for 2 hours at RT. Cells were transfected in suspension using FuGENE® HD Transfection Reagent at a 3:1 reagent to DNA ratio in Opti-MEMTM I Reduced-Serum Medium, with the final DNA concentration of 1 μg/μL. The transfection mixture was incubated for 10 min at RT before adding it to the cell suspension. Transfected cells were seeded at 3.0 × 10^4 cells/well in a white, clear, flat-bottom 96-well plate coated with 100 μg/mL poly-D-lysin ([…], Sigma Aldrich) and incubated for 48 h at 37°C and 5% CO2. […] (2023)]. Following the 48-h incubation period, cells were washed with the assay buffer. Compounds were serially diluted in 1:500 Nano-Glo® Vivazine^TM working solution (#N2581, Promega), and 90 μL of compound/Vivazine mix was added, followed by incubation for 45 min at 37°C and 5% CO2. Plates were transferred to the FLIPR Penta system (Molecular Devices) at 37°C, and all steps onward are automated and performed by the FLIPR Penta system. After a 10-min equilibration period, the baseline BRET signal was determined by five consecutive reads followed by automatic administration of 10 μL of 10× ligand (Table 1) to the cell plate. Changes in the BRET signal was measured for 10 min, with each read spaced by 2.5 s. […] BRET ratios were extracted from ScreenWorks software (Molecular Devices) and represent the ratio between the acceptor emission of […]2 or mNG (G protein or β-arrestin recruitment, respectively) and NLuc donor emission. The basal BRET ratio was defined as the average BRET ratio of the five consecutive readings preceding ligand addition. Changes in BRET values post ligand administration (ΔBRET) were calculated for each well as a percentage difference to the previously defined basal BRET ratio. Average ΔBRET values were baseline corrected by subtracting the average negative control BRET ratio (unstimulated condition). […] AUCs were normalized to the positive control (stimulated condition); whereafter, dose-response curves were fitted to log (inhibitor) vs response (three parameters) in GraphPad 10.2.0 (GraphPad Software). […] Calculation 1: calculation of the BRET signal. • 1. […] NC correctedΔBRET=Δ[…]. • 4. a. Neg AUC of NC correctedΔBRET=Gα activation read out. b. Pos AUC of NC correctedΔBRET=β-arrestin recruitment.
# CXCR2 [2] = molecular target: T1, CXCR2; test: NanoBRET β-arrestin1 recruitment inhibition assay (NanoLux) in HEK293A cells; assay type: cell-based; details: normalized to Imax of navarixin = 100%, n = 3
# Method: Cells were trypsinized and resuspended at 3 × 10^5 cell/mL in the growth medium, whereafter they were incubated for 2 hours at RT. Cells were transfected in suspension using FuGENE® HD Transfection Reagent at a 3:1 reagent to DNA ratio in Opti-MEMTM I Reduced-Serum Medium, with the final DNA concentration of 1 μg/μL. The transfection mixture was incubated for 10 min at RT before adding it to the cell suspension. Transfected cells were seeded at 3.0 × 10^4 cells/well in a white, clear, flat-bottom 96-well plate coated with 100 μg/mL poly-D-lysin ([…], Sigma Aldrich) and incubated for 48 h at 37°C and 5% CO2. HEK293A cells were transiently co-transfected with plasmids encoding β-arrestin1 protein tagged with NLuc (donor) and CXCR2 protein tagged with mNeonGreen (mNG) acceptor in a 1:10 donor to acceptor ratio, as described previously ([Luís et al., 2022]). All subsequent steps are identical to those in “NanoBRET-based G protein activation inhibition assay,” which are described above. Measurements were acquired using a 440- to 480-nm donor emission filter (#0200-6179, Molecular Devices) and a 515- to 575-nm acceptor emission filter (#0200-6203, Molecular Devices) BRET ratios were extracted from ScreenWorks software (Molecular Devices) and represent the ratio between the acceptor emission of […]2 or mNG (G protein or β-arrestin recruitment, respectively) and NLuc donor emission. The basal BRET ratio was defined as the average BRET ratio of the five consecutive readings preceding ligand addition. Changes in BRET values post ligand administration (ΔBRET) were calculated for each well as a percentage difference to the previously defined basal BRET ratio. Average ΔBRET values were baseline corrected by subtracting the average negative control BRET ratio (unstimulated condition). […] AUCs were normalized to the positive control (stimulated condition); whereafter, dose-response curves were fitted to log (inhibitor) vs response (three parameters) in GraphPad 10.2.0 (GraphPad Software). […] Calculation 1: calculation of the BRET signal. • 1. […] NC correctedΔBRET=Δ[…]. • 4. a. Neg AUC of NC correctedΔBRET=Gα activation read out. b. Pos AUC of NC correctedΔBRET=β-arrestin recruitment.
# CXCR2 [3] = molecular target: T1, CXCR2; test: Bias analysis (bias plot, bias index) of β-arrestin1 recruitment inhibition versus Gαi1 activation inhibition, navarixin as reference; assay type: cell-based; details: all ELR+ chemokines; navarixin as reference antagonist
# Method: For signaling bias calculations, constraints were set to bottom values equal to zero. The calculated top values generated by nonlinear fit log (inhibitor) vs response (three parameters) in GraphPad 10.2.1 were taken as Imax. […] The bias index values were calculated, as is shown in calculation 2. Briefly, log(Imax/IC50) was calculated. […] Finally, the bias index was calculated by subtracting the ∆log (Imax/IC50) of the tested compound from the stated reference pathway from that of the pathway of interest. […] The statistical significance of H1 was evaluated using a one-sample T-test with Benjamini-Hochberg correction applied for multiple comparisons, whereas H2 was assessed using a one-way ANOVA followed by Tukey’s test.
# Bias index=∆LogImax/IC50P1:β−arr1−∆LogImax/IC50P2:Gai1 .
# Bias plots are equimolar comparisons between the two pathways of interest.
# CXCR2 [4] = molecular target: T1, CXCR2; set-up: method as in Boon et al., 2024; details: agonist concentration used in NanoBRET assays; ref Boon et al., 2024; cited from earlier work
# CXCR2 [5] = molecular target: T1, CXCR2; set-up: method as in Boon et al., 2024; details: agonist concentration used in NanoBRET assays; ref Boon et al., 2024; cited from earlier work; remark: listed apart in the source
Imax Gαi1 (maximum observed inhibitory effect) (CXCR2 [1]; CXCL1 at EC80) [%],Imax Gαi1 (maximum observed inhibitory effect) (CXCR2 [1]; CXCL2 at EC80) [%],Imax Gαi1 (maximum observed inhibitory effect) (CXCR2 [1]; CXCL3 at EC80) [%],Imax Gαi1 (maximum observed inhibitory effect) (CXCR2 [1]; CXCL5 at EC80) [%],Imax Gαi1 (maximum observed inhibitory effect) (CXCR2 [1]; CXCL6 at EC80) [%],Imax Gαi1 (maximum observed inhibitory effect) (CXCR2 [1]; CXCL7 at EC80) [%],Imax Gαi1 (maximum observed inhibitory effect) (CXCR2 [1]; CXCL8 at EC80) [%],Imax βarr1 (maximum observed inhibitory effect) (CXCR2 [2]; CXCL1 at EC80) [%],Imax βarr1 (maximum observed inhibitory effect) (CXCR2 [2]; CXCL2 at EC80) [%],Imax βarr1 (maximum observed inhibitory effect) (CXCR2 [2]; CXCL3 at EC80) [%],Imax βarr1 (maximum observed inhibitory effect) (CXCR2 [2]; CXCL5 at EC80) [%],Imax βarr1 (maximum observed inhibitory effect) (CXCR2 [2]; CXCL6 at EC80) [%],Imax βarr1 (maximum observed inhibitory effect) (CXCR2 [2]; CXCL7 at EC80) [%],Imax βarr1 (maximum observed inhibitory effect) (CXCR2 [2]; CXCL8 at EC80) [%],Molecule,"bias profile (bias plot), β-arrestin1 recruitment inhibition vs Gαi1 activation inhibition (CXCR2 [3])",G-protein EC80 (CXCR2 [4]) [µM],β-arrestin EC80 (CXCR2 [5]) [µM]
100,100,98.8,95.7,100,100,98.5,100,100,100,100,100,100,100,"C[C@H](CO)Nc1nc(SCc2cccc(Cl)c2F)nc2[nH]c(=O)sc12 [AZ10397767, reference compound]",bias toward the inhibition of β-arrestin1 recruitment,,
,,,,,,,,,,,,,,"CXCL7: recombinant human ELR+ chemokine, CXCR2 ligand (PeproTech) (protein, UniProt P02775 59-128, looked up, Neutrophil-activating peptide 2) Neutrophil-activating peptide …: AELRCMCIKTTSGIHPKNIQSLEVIGKGTHCNQVEVIATLKDGRKICLDPDAPRIKKIVQKKLAGDESAD",,0.00409,0.1007
